This passage reports IC50 results from patent US20260035382A1, “COMPOUNDS AS SUMO ACTIVATING ENZYME INHIBITORS” (WIGEN BIOMEDICINE TECHNOLOGY (SHANGHAI) CO., LTD., priority 2022, published 2026).

SMILES strings stand for the structures. pIC50: −log10 of the molar value. Read-outs that look alike come from different tables or passages of the source. Bounds are passed on as bounds.

The assay has as its target SAE (Homo sapiens (Human), UniProt Q9UBT2). Nature of the assay: In vitro inhibitory activity assay against SAE (SUMO-2/3 immunofluorescence in HCT116 cells). It counts as cell-based. The following applies: 6 h incubation, read-out: SUMO IF IC50. In a few lines: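 HCT116 cells treated with compounds for 6 h at 37 °C, then fixed, permeabilized and immunostained for SUMO-2/3 with FITC secondary detection. Fluorescence compared with DMSO control to give inhibition rate and IC50.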

By pIC50 is commonly meant the IC50 on a negative log10 scale, so that one unit is a factor of ten.

Chain of SAE (Q9UBT2 whole entry): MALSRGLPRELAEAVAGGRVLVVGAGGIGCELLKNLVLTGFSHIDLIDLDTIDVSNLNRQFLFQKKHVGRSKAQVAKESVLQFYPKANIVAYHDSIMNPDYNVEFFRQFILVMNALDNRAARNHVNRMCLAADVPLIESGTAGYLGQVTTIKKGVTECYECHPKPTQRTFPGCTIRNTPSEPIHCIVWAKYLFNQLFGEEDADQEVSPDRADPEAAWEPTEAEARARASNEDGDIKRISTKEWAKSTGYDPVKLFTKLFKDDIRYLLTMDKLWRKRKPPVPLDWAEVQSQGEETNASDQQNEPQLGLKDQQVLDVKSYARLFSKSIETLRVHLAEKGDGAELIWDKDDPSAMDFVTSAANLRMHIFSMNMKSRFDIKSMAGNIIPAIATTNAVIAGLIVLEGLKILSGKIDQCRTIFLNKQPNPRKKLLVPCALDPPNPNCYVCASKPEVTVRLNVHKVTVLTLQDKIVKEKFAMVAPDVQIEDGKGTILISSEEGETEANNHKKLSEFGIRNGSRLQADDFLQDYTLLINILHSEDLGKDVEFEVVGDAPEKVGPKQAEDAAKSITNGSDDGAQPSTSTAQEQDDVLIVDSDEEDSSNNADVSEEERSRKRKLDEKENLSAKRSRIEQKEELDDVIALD
Chain of SAE (Q9UBE0 whole entry partner): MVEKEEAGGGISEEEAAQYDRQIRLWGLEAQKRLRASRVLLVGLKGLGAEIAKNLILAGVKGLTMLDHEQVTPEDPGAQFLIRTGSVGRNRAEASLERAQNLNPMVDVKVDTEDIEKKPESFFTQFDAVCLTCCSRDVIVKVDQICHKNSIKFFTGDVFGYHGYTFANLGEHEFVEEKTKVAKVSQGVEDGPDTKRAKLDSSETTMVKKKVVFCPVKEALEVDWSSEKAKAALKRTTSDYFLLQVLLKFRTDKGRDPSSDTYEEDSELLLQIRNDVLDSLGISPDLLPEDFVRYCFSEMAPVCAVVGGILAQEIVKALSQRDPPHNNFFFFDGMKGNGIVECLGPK

For the compound `NS(=O)(=O)OC[C@H]1C[C@@H](Nc2ncncc2C(=O)c2cc3c(s2)CCC[C@]32NCCc3ncc(Cl)cc32)C[C@@H]1O` [Compound 141], under “class symbols”, the pIC50 was at least 7.30.
On the same count and under the same terms, in the case of `NS(=O)(=O)OC[C@H]1C[C@@H](Nc2ncncc2C(=O)c2cc3c(s2)CSCC32NCCc3cnc(Cl)cc32)C[C@@H]1O` (some centres unmarked) [Compound 142] it was 6.70 to 7.30; in that of `NS(=O)(=O)OC[C@H]1C[C@@H](Nc2ncncc2C(=O)c2cc3c(s2)CSC[C@@]32NCCc3cnc(Cl)cc32)C[C@@H]1O` [Compound 143], below 6.70.
Take `NS(=O)(=O)OC[C@H]1C[C@@H](Nc2ncncc2C(=O)c2cc3c(s2)CSC[C@]32NCCc3cnc(Cl)cc32)C[C@@H]1O` [Compound 144]: the pIC50 (class symbols) was at least 7.30.
With `NS(=O)(=O)OC[C@H]1C[C@@H](Nc2ncncc2C(=O)c2cc3c(s2)CSCC32NCCc3ccc(Cl)nc32)C[C@@H]1O` (some centres unmarked) [Compound 145], under “class symbols”, the pIC50 is 6.70 to 7.30.
On the same count and under the same terms, in the case of `NS(=O)(=O)OC[C@H]1C[C@@H](Nc2ncncc2C(=O)c2cc3c(s2)CSC[C@@]32NCCc3ccc(Cl)nc32)C[C@@H]1O` [Compound 146] it was below 6.70; in that of `NS(=O)(=O)OC[C@H]1C[C@@H](Nc2ncncc2C(=O)c2cc3c(s2)CSC[C@]32NCCc3ccc(Cl)nc32)C[C@@H]1O` [Compound 147], at least 7.30.
The same measure, in the same setting: to `NS(=O)(=O)OC[C@H]1C[C@@H](Nc2ncncc2C(=O)c2cc3c(s2)CSCC32NCCc3ncc(Cl)cc32)C[C@@H]1O` (some centres unmarked) [Compound 148] belongs 6.70 to 7.30; to `NS(=O)(=O)OC[C@H]1C[C@@H](Nc2ncncc2C(=O)c2cc3c(s2)CSC[C@@]32NCCc3ncc(Cl)cc32)C[C@@H]1O` [Compound 149], below 6.70; to `NS(=O)(=O)CC[C@H]1C[C@@H](Nc2ncncc2C(=O)c2cc3c(s2)CSC[C@]32NCCc3ncc(Cl)cc32)C[C@@H]1O` [Compound 150], at least 7.30.
Regarding `NS(=O)(=O)OC[C@H]1C[C@@H](Nc2ncncc2C(=O)c2cc3c(s2)CC2(CC2)CC32NCCc3ccc(Cl)cc32)C[C@@H]1O` (some centres unmarked) [Compound 151], the pIC50 (class symbols) is at least 7.30.
For the compound `NS(=O)(=O)OC[C@H]1C[C@@H](Nc2ncncc2C(=O)c2cc3c(s2)CCC[C@@]32NCC3(CC3)c3ccc(Cl)cc32)C[C@@H]1O` [Compound 152], where the note is “class symbols”, the pIC50 is below 6.70.
On the same count and under the same terms, to `NS(=O)(=O)OC[C@H]1C[C@@H](Nc2ncncc2C(=O)c2cc3c(s2)CCC[C@]32NCC3(CC3)c3ccc(Cl)cc32)C[C@@H]1O` [Compound 153] belongs at least 7.30; to `NS(=O)(=O)OC[C@H]1C[C@@H](Nc2ncncc2C(=O)c2cc3c(s2)C(F)=CC32NCCc3ccc(Cl)cc32)C[C@@H]1O` (some centres unmarked) [Compound 154], at least 7.30.
Regarding `NS(=O)(=O)OC[C@H]1C[C@@H](Nc2ncncc2C(=O)c2cc3c(s2)C(F)=C[C@@]32NCCc3ccc(Cl)cc32)C[C@@H]1O` [Compound 155], where the note is “class symbols”, the pIC50 is below 6.70.
As for `NS(=O)(=O)OC[C@H]1C[C@@H](Nc2ncncc2C(=O)c2cc3c(s2)C(F)=C[C@]32NCCc3ccc(Cl)cc32)C[C@@H]1O` [Compound 156], under “class symbols”, the pIC50 was at least 7.30.
Same read-out and setting: in the case of `CC1=CC2(NCCc3ccc(Cl)cc32)c2cc(C(=O)c3cncnc3N[C@@H]3C[C@H](COS(N)(=O)=O)[C@@H](O)C3)sc21` (some centres unmarked) [Compound 157] it was 6.70 to 7.30; in that of `CC1=C[C@@]2(NCCc3ccc(Cl)cc32)c2cc(C(=O)c3cncnc3N[C@@H]3C[C@H](COS(N)(=O)=O)[C@@H](O)C3)sc21` [Compound 158], below 6.70; in that of `CC1=C[C@]2(NCCc3ccc(Cl)cc32)c2cc(C(=O)c3cncnc3N[C@@H]3C[C@H](COS(N)(=O)=O)[C@@H](O)C3)sc21` [Compound 159], at least 7.30.
The same measure, in the same setting: in the case of `NS(=O)(=O)OC[C@H]1C[C@@H](Nc2ncncc2C(=O)c2cc3c(s2)C(F)(F)CC32NCCc3ccc(Cl)cc32)C[C@@H]1O` (some centres unmarked) [Compound 160] it was 6.70 to 7.30; in that of `NS(=O)(=O)OC[C@H]1C[C@@H](Nc2ncncc2C(=O)c2cc3c(s2)C(F)(F)C[C@@]32NCCc3ccc(Cl)cc32)C[C@@H]1O` [Compound 161], below 6.70.
For `NS(=O)(=O)OC[C@H]1C[C@@H](Nc2ncncc2C(=O)c2cc3c(s2)C(F)(F)C[C@]32NCCc3ccc(Cl)cc32)C[C@@H]1O` [Compound 162], the pIC50 (class symbols) was 6.70 to 7.30.
`NS(=O)(=O)OC[C@H]1C[C@@H](Nc2ncncc2C(=O)c2cc3c(s2)CCCC32NC(=O)Cc3ccc(Cl)cc32)C[C@@H]1O` (some centres unmarked) [Compound 163]: the pIC50 (class symbols) is below 6.70.
The same measure, in the same setting: to `NS(=O)(=O)OC[C@H]1C[C@@H](Nc2ncncc2C(=O)c2cc3c(s2)CCC[C@@]32NC(=O)Cc3ccc(Cl)cc32)C[C@@H]1O` [Compound 164] belongs below 6.70.
On to `NS(=O)(=O)OC[C@H]1C[C@@H](Nc2ncncc2C(=O)c2cc3c(s2)CCC[C@]32NC(=O)Cc3ccc(Cl)cc32)C[C@@H]1O` [Compound 165], for which the pIC50 (class symbols) was below 6.70.
With `NS(=O)(=O)OC[C@H]1C[C@@H](Nc2ncncc2C(=O)c2cc3c(s2)C(=O)CC32NCCc3ccc(Cl)cc32)C[C@@H]1O` (some centres unmarked) [Compound 166], the pIC50 (class symbols) was 6.70 to 7.30.
Still for that read-out and setting: in the case of `NS(=O)(=O)OC[C@H]1C[C@@H](Nc2ncncc2C(=O)c2cc3c(s2)C(=O)C[C@@]32NCCc3ccc(Cl)cc32)C[C@@H]1O` [Compound 167] it was below 6.70; in that of `NS(=O)(=O)OC[C@H]1C[C@@H](Nc2ncncc2C(=O)c2cc3c(s2)C(=O)C[C@]32NCCc3ccc(Cl)cc32)C[C@@H]1O` [Compound 168], 6.70 to 7.30.
On to `NS(=O)(=O)OC[C@H]1C[C@@H](Nc2ncncc2C(=O)c2cc3c(s2)C=C[C@@]32NCCc3ccc(Cl)cc32)C[C@@H]1O` [Compound 175], for which the pIC50 (numeric values) was below 6.00.
For the compound `NS(=O)(=O)OC[C@H]1C[C@@H](Nc2ncncc2C(=O)c2cc3c(s2)C=C[C@]32NCCc3ccc(Cl)cc32)C[C@@H]1O` [Compound 176], the pIC50 (numeric values) is 7.63.
Take `NS(=O)(=O)OC[C@H]1C[C@@H](Nc2ncncc2C(=O)c2cc3c(s2)C=C[C@@]32NCCc3ccc(F)cc32)C[C@@H]1O` [Compound 177]: the negative logarithm of the IC50 (pIC50) (class symbols) is below 6.70.
As to `NS(=O)(=O)OC[C@H]1C[C@@H](Nc2ncncc2C(=O)c2cc3c(s2)C=C[C@]32NCCc3ccc(F)cc32)C[C@@H]1O` [Compound 178], the negative-log IC50 (pIC50) (class symbols) was at least 7.30.
On to `COc1ccc2c(c1)[C@]1(CCCc3sc(C(=O)c4cncnc4N[C@@H]4C[C@H](COS(N)(=O)=O)[C@@H](O)C4)cc31)NCC2` [Compound 179], for which the pIC50 (class symbols) was below 6.70.
Turning to `COc1ccc2c(c1)[C@@]1(CCCc3sc(C(=O)c4cncnc4N[C@@H]4C[C@H](COS(N)(=O)=O)[C@@H](O)C4)cc31)NCC2` [Compound 180], the pIC50 (class symbols) was below 6.70.
Still for that read-out and setting: to `CCN1Cc2sc(C(=O)c3cncnc3N[C@@H]3C[C@H](COS(N)(=O)=O)[C@@H](O)C3)cc2C2(C1)NCCc1ccc(Cl)cc12` (some centres unmarked) [Compound 181] belongs at least 7.30.
In the case of `CCN1Cc2sc(C(=O)c3cncnc3N[C@@H]3C[C@H](COS(N)(=O)=O)[C@@H](O)C3)cc2[C@@]2(C1)NCCc1ccc(Cl)cc12` [Compound 182], under “numeric values”, the pIC50 is below 6.00.
As to `CCN1Cc2sc(C(=O)c3cncnc3N[C@@H]3C[C@H](COS(N)(=O)=O)[C@@H](O)C3)cc2[C@]2(C1)NCCc1ccc(Cl)cc12` [Compound 183], for the setting “numeric values”, the pIC50 was 7.73.
Turning to `CC(C)N1Cc2sc(C(=O)c3cncnc3N[C@@H]3C[C@H](COS(N)(=O)=O)[C@@H](O)C3)cc2C2(C1)NCCc1ccc(Cl)cc12` (some centres unmarked) [Compound 184], for the setting “class symbols”, the pIC50 is at least 7.30.
